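These data come from cells grown in 96-well plates and exposed to compound for 48 hours at five concentrations. GI50: concentration for 50% inhibition of growth. Definition used: TGI = concentration required for complete inhibition of growth.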
Experiments:
Experiment in all cases: growth of human tumour cells (NCI), 48 h
[1] = test system: OVCAR-3 ovarian
[2] = test system: IGROV1 ovarian
[3] = test system: CAKI-1 renal
[4] = test system: TK-10 renal
[5] = test system: UACC-257 melanoma
[6] = test system: SK-MEL-5 melanoma
[7] = test system: A498 renal
[8] = test system: T-47D breast
[9] = test system: OVCAR-8 ovarian
[10] = test system: MOLT-4 leukemia
[11] = test system: SF-295 CNS
[12] = test system: UO-31 renal
[13] = test system: M14 melanoma
[14] = test system: SF-268 CNS
[15] = test system: RPMI-8226 leukemia
[16] = test system: COLO 205 colon
[17] = test system: BT-549 breast
[18] = test system: KM12 colon
[19] = test system: SK-MEL-28 melanoma
[20] = test system: NCI-H23 lung
[21] = test system: HS 578T breast
[22] = test system: UACC-62 melanoma
[23] = test system: U251 CNS
[24] = test system: SN12C renal
[25] = test system: SK-OV-3 ovarian
[26] = test system: LOX IMVI melanoma
[27] = test system: SNB-75 CNS
[28] = test system: NCI-H460 lung
[29] = test system: SF-539 CNS
[30] = test system: 786-0 renal
[31] = test system: EKVX NSCLC
[32] = test system: MDA-MB-435
[33] = test system: RXF 393 renal
[34] = test system: SW-620 colon
[35] = test system: SR leukemia
[36] = test system: OVCAR-5 ovarian
[37] = test system: HT29 colon
[38] = test system: HCC-2998 colon
[39] = test system: SK-MEL-2 melanoma
[40] = test system: MALME-3M melanoma
[41] = test system: CCRF-CEM leukemia
[42] = test system: PC-3 prostate
[43] = test system: HCT-15 colon
[44] = test system: A549 NSCLC
[45] = test system: DU-145 prostate
[46] = test system: SNB-19 CNS
[47] = test system: HL-60(TB) leukemia
[48] = test system: MDA-MB-231 breast
[49] = test system: NCI-H226 lung
[50] = test system: HOP-92 NSCLC
[51] = test system: MCF7 breast
[52] = test system: NCI-H522 lung
[53] = test system: NCI/ADR-RES ovarian
[54] = test system: ACHN renal
[55] = test system: HOP-62 NSCLC
[56] = test system: K-562 leukemia
[57] = test system: HCT-116 colon

Compound `CC(C)(C)c1ccc(CC(=O)Nc2sc3c(c2C(N)=O)CCC(=O)C3)cc1` has a GI50 [1] of 0.541 µM, a TGI [1] of 2.09 µM and a GI50 [2] of 0.532 µM. It also gave a TGI [2] of 3.1 µM, a GI50 [3] of 0.395 µM and a TGI [3] of 3.01 µM. The GI50 [4] was 0.473 µM, the TGI [4] was 8.48 µM and the GI50 [5] was 2.04 µM. For the same compound, the TGI [5] was 5.86 µM, the GI50 [6] was 1.23 µM and the TGI [6] was 2.58 µM. For the same compound, the GI50 [7] was 2.05 µM, the TGI [7] was 6.97 µM and the GI50 [8] was 0.368 µM. For the same compound, the TGI [8] was 2.67 µM, the GI50 [9] was 0.458 µM and the TGI [9] was 24.7 µM. The GI50 [10] was 0.569 µM, the TGI [10] was 8.21 µM and the GI50 [11] was 1.18 µM. The TGI [11] was 3.18 µM, the GI50 [12] was 0.43 µM and the TGI [12] was 1.68 µM. The GI50 [13] was 0.435 µM, the TGI [13] was 2.69 µM and the GI50 [14] was 2.82 µM. For the same compound, the TGI [14] was 12.7 µM, the GI50 [15] was 0.221 µM and the TGI [15] was 0.691 µM. For the same compound, the GI50 [16] was 1.33 µM, the TGI [16] was 3.02 µM and the GI50 [17] was 0.48 µM. For the same compound, the TGI [17] was 2.4 µM, the GI50 [18] was 0.88 µM and the TGI [18] was 3.16 µM. For the same compound, the GI50 [19] was 1.38 µM, the TGI [19] was 3.16 µM and the GI50 [20] was 0.34 µM. The TGI [20] was 3.59 µM, the GI50 [21] was 1.98 µM and the TGI [21] was 10.9 µM. It also gave a GI50 [22] of 0.54 µM, a TGI [22] of 2.07 µM and a GI50 [23] of 0.389 µM. It also gave a TGI [23] of 2.25 µM, a GI50 [24] of 1.04 µM and a TGI [24] of 3.91 µM. It also gave a GI50 [25] of 2.77 µM, a TGI [25] of 8.04 µM and a GI50 [26] of 0.46 µM. It also gave a TGI [26] of 3.41 µM, a GI50 [27] of 1.3 µM and a TGI [27] of 4.28 µM. The GI50 [28] was 1.03 µM, the TGI [28] was 8.06 µM and the GI50 [29] was 0.421 µM. For the same compound, the TGI [29] was 1.67 µM, the GI50 [30] was 1.39 µM and the TGI [30] was 11.8 µM. For the same compound, the GI50 [31] was 0.549 µM, the TGI [31] was 3.54 µM and the GI50 [32] was 1.3 µM. The TGI [32] was 4.21 µM, the GI50 [33] was 0.594 µM and the TGI [33] was 1.98 µM. The GI50 [34] was 0.386 µM, the TGI [34] was 2.16 µM and the GI50 [35] was 0.132 µM. The GI50 [36] was 0.901 µM, the TGI [36] was 2.99 µM and the GI50 [37] was 0.871 µM. It also gave a TGI [37] of 8.43 µM, a GI50 [38] of 1.49 µM and a TGI [38] of 3.88 µM. The GI50 [39] was 2.29 µM, the TGI [39] was 6.64 µM and the GI50 [40] was 0.692 µM. It also gave a TGI [40] of 2.35 µM, a GI50 [41] of 0.137 µM and a TGI [41] of 3.62 µM. For the same compound, the GI50 [42] was 0.207 µM, the TGI [42] was 1.9 µM and the GI50 [43] was 0.295 µM. For the same compound, the TGI [43] was 2.11 µM, the GI50 [44] was 1.99 µM and the TGI [44] was 6.92 µM. It also gave a GI50 [45] of 3.17 µM, a TGI [45] of 14 µM and a GI50 [46] of 1.09 µM. The TGI [46] was 4.69 µM, the GI50 [47] was 0.423 µM and the TGI [47] was 3.11 µM. For the same compound, the GI50 [48] was 1.17 µM, the TGI [48] was 3.29 µM and the GI50 [49] was 1.7 µM. The TGI [49] was 4.14 µM, the GI50 [50] was 0.464 µM and the TGI [50] was 1.85 µM. It also gave a GI50 [51] of 0.433 µM, a TGI [51] of 6.66 µM and a GI50 [52] of 0.283 µM. The TGI [52] was 2.59 µM, the GI50 [53] was 0.621 µM and the TGI [53] was 5.11 µM. It also gave a GI50 [54] of 0.374 µM, a TGI [54] of 1.31 µM and a GI50 [55] of 2.69 µM. The TGI [55] was 13.2 µM, the GI50 [56] was 0.233 µM and the TGI [56] was 4.94 µM. The GI50 [57] was 0.26 µM and the TGI [57] was 1.29 µM.

— PubChem BioAssay (NCI)
